From patent US11976066B1 (priority 2023, dated 2024)
Values after ≈ are worked out from the molar mass of the structure shown.

System: multidrug-resistant (MDR) strains of Mycobacterium tuberculosis
Assay: microbe, parasite or virus in culture
Assay type: cell-based
Settings: 192 h, read-out: MIC MDR-TB, MDR strains, REMA, 8 days incubation at 37° C, Middlebrook 7H9 broth

| Compound | MIC |
| --- | --- |
| CCOC(=O)c1cc(C(=O)c2ccccc2[N+](=O)[O-])n2ccc(N)cc12 [Compound 3b, Ethyl 7-amino-3-(2-nitrobenzoyl)indolizine-1-carboxylate] | ~16 µg/mL (≈ 45.3 µM) |
| CCOC(=O)c1cc(C(=O)c2ccc(Br)cc2)n2ccc(N)cc12 [Compound 3e, Ethyl 7-amino-3-(4-bromobenzoyl)indolizine-1-carboxylate] | ~64 µg/mL (≈ 165 µM) |
| COC(=O)c1c(C(=O)OC)c2cc(N)ccn2c1C(=O)c1ccc(OC)cc1 [Compound 3d, Dimethyl 7-amino-3-(4-methoxybenzoyl)indolizine-1,2-dicarboxylate] | ~32 µg/mL (≈ 83.7 µM) |
| CCOC(=O)c1cc(C(=O)c2ccc(F)cc2)n2ccc(N)cc12 [Compound 3a, Ethyl 7-amino-3-(4-fluorobenzoyl)indolizine-1-carboxylate] | 32 µg/mL (≈ 98.1 µM) |
